Experimental data from patent US11109593B2, “Isoxazolin-5-one derivative and herbicide containing same as active ingredient” (HOKKO CHEMICAL INDUSTRY CO., LTD., priority 2017, dated 2021).

Legend:
Format in all cases: in vivo
[1] = test system: Amaranthus viridis; test: Test Example 4: herbicidal effect test by treatment of leave and stem in dry field farming (seven days after seeding); details: 120 g/10a active ingredient; emulsion sprayed seven days after seeding; evaluated 14 days after treatment
In short: (§1)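 Duplicate pots were scored 14 days post-spray by dry weight, herbicidal rate = {1 − treated/untreated average dry weight} × 100. The water-diluted emulsion, equivalent to 120 g active ingredient per 10 ares in 100 L, was applied seven days after sowing 20 seeds each into the upper 1 cm of alluvial soil.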

[2] = test system: Echinochloa crus-galli; test: as above; details: 120 g/10a active ingredient; emulsion sprayed seven days after seeding; evaluated 14 days after treatment
In short: as §1

[3] = test system: southern crabgrass; test: as above; details: 120 g/10a active ingredient; emulsion sprayed seven days after seeding; evaluated 14 days after treatment
In short: as §1

[4] = test system: Chenopodium album; test: as above; details: 120 g/10a active ingredient; emulsion sprayed seven days after seeding; evaluated 14 days after treatment
In short: as §1

[5] = test system: Scirpus juncoides; test: Test Example 1: herbicidal effect test by treatment of rice paddy soil (immediately after seeding); details: 120 g/10a active ingredient, dry weight vs untreated area, 14 days after treatment
In short: (§2)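 Values are herbicidal rates (%) derived from average plant dry weight in treated versus untreated pots 14 days after treatment, run in duplicate. Treatment was a water-diluted emulsion dropped into flooded paddy soil right after sowing, at 120 g active ingredient per 10 ares.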

[6] = test system: broad leaf weeds (Lindernia pyxidaria and Monochoria vaginalis); test: as above; details: 120 g/10a active ingredient, dry weight vs untreated area, 14 days after treatment
In short: as §2

[7] = test system: Echinochloa crus-galli; test: as above; details: 120 g/10a active ingredient, dry weight vs untreated area, 14 days after treatment
In short: as §2

[8] = test system: Amaranthus viridis; test: Test Example 3: herbicidal effect test by treatment of dry field farming soil (one day after seeding); details: 120 g/10a active ingredient, evaluated 14 days after treatment
In short: (§3)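 Dry-field alluvium pots; weed seeds incorporated in top 1 cm; soil spray of diluted emulsion 1 d after seeding, 120 g a.i./10 a in 100 L/10 a. Readout: % reduction of dry weight vs untreated, day 14, duplicates.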

[9] = test system: Echinochloa crus-galli; test: as above; details: 120 g/10a active ingredient, evaluated 14 days after treatment
In short: as §3

[10] = test system: southern crabgrass; test: as above; details: 120 g/10a active ingredient, evaluated 14 days after treatment
In short: as §3

[11] = test system: Chenopodium album; test: as above; details: 120 g/10a active ingredient, evaluated 14 days after treatment
In short: as §3

[12] = test system: Scirpus juncoides; test: Test Example 2: herbicidal effect test by treatment during growing period in paddy rice cultivation (seven days after seeding); details: 120 g/10a active ingredient, assessed 14 days after treatment, dry weight vs untreated area
In short: (§4)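 Post-emergence paddy water application: compounds were formulated as emulsions, diluted and dropped into flooded pots seven days after sowing at a rate equivalent to 120 g per 10 ares. Efficacy was taken as dry-weight reduction relative to untreated controls after 14 days.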

[13] = test system: broad leaf weeds (Lindernia pyxidaria and Monochoria vaginalis); test: as above; details: 120 g/10a active ingredient, assessed 14 days after treatment, dry weight vs untreated area
In short: as §4

[14] = test system: Echinochloa crus-galli; test: as above; details: 120 g/10a active ingredient, assessed 14 days after treatment, dry weight vs untreated area
In short: as §4

Cc1c(Cc2cccc(Cl)c2NS(=O)(=O)C(F)(F)F)c(=O)on1C(C)C [Compound 1-33]
herbicidal effect (herbicidal rate), Amaranthus viridis [1]: 0%
herbicidal effect (herbicidal rate), Echinochloa crus-galli [2]: 90%
herbicidal effect (herbicidal rate), southern crabgrass [3]: 40%
herbicidal effect (herbicidal rate), Chenopodium album [4]: 40%
Herbicidal rate (%) Scirpus juncoides [5]: 100%
Herbicidal rate (%) Lindernia pyxidaria [6]: 90%
Herbicidal rate (%) Monochoria vaginalis [6]: 90%
Herbicidal rate (%) Echinochloa crus-galli [7]: 80%
herbicidal rate, Amaranthus viridis [8]: 0%
herbicidal rate, Echinochloa crus-galli [9]: 90%
herbicidal rate, southern crabgrass [10]: 70%
herbicidal rate, Chenopodium album [11]: 40%
Herbicidal rate (%) Scirpus juncoides [12]: 80%
Herbicidal rate (%) Lindernia pyxidaria [13]: 60%
Herbicidal rate (%) Monochoria vaginalis [13]: 60%
Herbicidal rate (%) Echinochloa crus-galli [14]: 60%

Cc1c(Cc2ccccc2N(C(=O)OCc2ccccc2)S(=O)(=O)C(F)(F)F)c(=O)on1CC(C)C [Compound 1-785]
herbicidal effect (herbicidal rate), Amaranthus viridis [1]: 40%
herbicidal effect (herbicidal rate), Echinochloa crus-galli [2]: 90%
herbicidal effect (herbicidal rate), southern crabgrass [3]: 90%
herbicidal effect (herbicidal rate), Chenopodium album [4]: 40%
Herbicidal rate (%) Scirpus juncoides [5]: 90%
Herbicidal rate (%) Lindernia pyxidaria [6]: 90%
Herbicidal rate (%) Monochoria vaginalis [6]: 90%
Herbicidal rate (%) Echinochloa crus-galli [7]: 90%
herbicidal rate, Amaranthus viridis [8]: 90%
herbicidal rate, Echinochloa crus-galli [9]: 90%
herbicidal rate, southern crabgrass [10]: 90%
herbicidal rate, Chenopodium album [11]: 90%
Herbicidal rate (%) Scirpus juncoides [12]: 90%
Herbicidal rate (%) Lindernia pyxidaria [13]: 90%
Herbicidal rate (%) Monochoria vaginalis [13]: 90%
Herbicidal rate (%) Echinochloa crus-galli [14]: 90%

CCC(c1ccccc1)n1oc(=O)c(Cc2ccccc2N(S(=O)(=O)C(F)(F)F)S(=O)(=O)C(F)(F)F)c1C (stereo not shown) [Compound 1-1038]
herbicidal effect (herbicidal rate), Amaranthus viridis [1]: 40%
herbicidal effect (herbicidal rate), Echinochloa crus-galli [2]: 90%
herbicidal effect (herbicidal rate), southern crabgrass [3]: 60%
herbicidal effect (herbicidal rate), Chenopodium album [4]: 40%
Herbicidal rate (%) Scirpus juncoides [5]: 90%
Herbicidal rate (%) Lindernia pyxidaria [6]: 90%
Herbicidal rate (%) Monochoria vaginalis [6]: 90%
Herbicidal rate (%) Echinochloa crus-galli [7]: 90%
herbicidal rate, Amaranthus viridis [8]: 0%
herbicidal rate, Echinochloa crus-galli [9]: 90%
herbicidal rate, southern crabgrass [10]: 90%
herbicidal rate, Chenopodium album [11]: 0%
Herbicidal rate (%) Scirpus juncoides [12]: 90%
Herbicidal rate (%) Lindernia pyxidaria [13]: 60%
Herbicidal rate (%) Monochoria vaginalis [13]: 80%
Herbicidal rate (%) Echinochloa crus-galli [14]: 90%

C#CCn1oc(=O)c(Cc2ccccc2NS(=O)(=O)C(F)(F)F)c1C [Compound 1-138]
herbicidal effect (herbicidal rate), Amaranthus viridis [1]: 40%
herbicidal effect (herbicidal rate), Echinochloa crus-galli [2]: 80%
herbicidal effect (herbicidal rate), southern crabgrass [3]: 80%
herbicidal effect (herbicidal rate), Chenopodium album [4]: 0%
Herbicidal rate (%) Scirpus juncoides [5]: 90%
Herbicidal rate (%) Lindernia pyxidaria [6]: 100%
Herbicidal rate (%) Monochoria vaginalis [6]: 100%
Herbicidal rate (%) Echinochloa crus-galli [7]: 90%
herbicidal rate, Amaranthus viridis [8]: 0%
herbicidal rate, Echinochloa crus-galli [9]: 90%
herbicidal rate, southern crabgrass [10]: 90%
herbicidal rate, Chenopodium album [11]: 0%
Herbicidal rate (%) Scirpus juncoides [12]: 80%
Herbicidal rate (%) Lindernia pyxidaria [13]: 80%
Herbicidal rate (%) Monochoria vaginalis [13]: 80%
Herbicidal rate (%) Echinochloa crus-galli [14]: 90%

CCC(C)n1oc(=O)c(Cc2ccccc2N(C(=O)Oc2ccccc2)S(=O)(=O)C(F)(F)F)c1C (stereo not shown) [Compound 1-763]
herbicidal effect (herbicidal rate), Amaranthus viridis [1]: 40%
herbicidal effect (herbicidal rate), Echinochloa crus-galli [2]: 90%
herbicidal effect (herbicidal rate), southern crabgrass [3]: 90%
herbicidal effect (herbicidal rate), Chenopodium album [4]: 40%
Herbicidal rate (%) Scirpus juncoides [5]: 90%
Herbicidal rate (%) Lindernia pyxidaria [6]: 90%
Herbicidal rate (%) Monochoria vaginalis [6]: 90%
Herbicidal rate (%) Echinochloa crus-galli [7]: 90%
herbicidal rate, Amaranthus viridis [8]: 90%
herbicidal rate, Echinochloa crus-galli [9]: 90%
herbicidal rate, southern crabgrass [10]: 90%
herbicidal rate, Chenopodium album [11]: 90%
Herbicidal rate (%) Scirpus juncoides [12]: 90%
Herbicidal rate (%) Lindernia pyxidaria [13]: 90%
Herbicidal rate (%) Monochoria vaginalis [13]: 90%
Herbicidal rate (%) Echinochloa crus-galli [14]: 90%

Cc1c(Cc2ccccc2N(C(=O)OCc2ccccc2)S(=O)(=O)C(F)(F)F)c(=O)on1C(C)c1ccccc1 (stereo not shown) [Compound 1-796]
herbicidal effect (herbicidal rate), Amaranthus viridis [1]: 40%
herbicidal effect (herbicidal rate), Echinochloa crus-galli [2]: 90%
herbicidal effect (herbicidal rate), southern crabgrass [3]: 90%
herbicidal effect (herbicidal rate), Chenopodium album [4]: 40%
Herbicidal rate (%) Scirpus juncoides [5]: 90%
Herbicidal rate (%) Lindernia pyxidaria [6]: 90%
Herbicidal rate (%) Monochoria vaginalis [6]: 90%
Herbicidal rate (%) Echinochloa crus-galli [7]: 90%
herbicidal rate, Amaranthus viridis [8]: 90%
herbicidal rate, Echinochloa crus-galli [9]: 90%
herbicidal rate, southern crabgrass [10]: 90%
herbicidal rate, Chenopodium album [11]: 90%
Herbicidal rate (%) Scirpus juncoides [12]: 90%
Herbicidal rate (%) Lindernia pyxidaria [13]: 90%
Herbicidal rate (%) Monochoria vaginalis [13]: 90%
Herbicidal rate (%) Echinochloa crus-galli [14]: 90%

CCC(CC)n1oc(=O)c(Cc2ccccc2N(S(=O)(=O)C(F)(F)F)S(=O)(=O)C(F)(F)F)c1C [Compound 1-965]
herbicidal effect (herbicidal rate), Amaranthus viridis [1]: 90%
herbicidal effect (herbicidal rate), Echinochloa crus-galli [2]: 90%
herbicidal effect (herbicidal rate), southern crabgrass [3]: 90%
herbicidal effect (herbicidal rate), Chenopodium album [4]: 40%
Herbicidal rate (%) Scirpus juncoides [5]: 80%
Herbicidal rate (%) Lindernia pyxidaria [6]: 80%
Herbicidal rate (%) Monochoria vaginalis [6]: 100%
Herbicidal rate (%) Echinochloa crus-galli [7]: 100%
herbicidal rate, Amaranthus viridis [8]: 100%
herbicidal rate, Echinochloa crus-galli [9]: 100%
herbicidal rate, southern crabgrass [10]: 100%
herbicidal rate, Chenopodium album [11]: 100%
Herbicidal rate (%) Scirpus juncoides [12]: 80%
Herbicidal rate (%) Lindernia pyxidaria [13]: 50%
Herbicidal rate (%) Monochoria vaginalis [13]: 80%
Herbicidal rate (%) Echinochloa crus-galli [14]: 100%

CCCC(CC)n1oc(=O)c(Cc2ccccc2NS(=O)(=O)C(F)(F)F)c1C (stereo not shown) [Compound 1-110]
herbicidal effect (herbicidal rate), Amaranthus viridis [1]: 60%
herbicidal effect (herbicidal rate), Echinochloa crus-galli [2]: 90%
herbicidal effect (herbicidal rate), southern crabgrass [3]: 90%
herbicidal effect (herbicidal rate), Chenopodium album [4]: 50%
Herbicidal rate (%) Scirpus juncoides [5]: 100%
Herbicidal rate (%) Lindernia pyxidaria [6]: 100%
Herbicidal rate (%) Monochoria vaginalis [6]: 100%
Herbicidal rate (%) Echinochloa crus-galli [7]: 100%
herbicidal rate, Amaranthus viridis [8]: 80%
herbicidal rate, Echinochloa crus-galli [9]: 90%
herbicidal rate, southern crabgrass [10]: 90%
herbicidal rate, Chenopodium album [11]: 80%
Herbicidal rate (%) Scirpus juncoides [12]: 80%
Herbicidal rate (%) Lindernia pyxidaria [13]: 80%
Herbicidal rate (%) Monochoria vaginalis [13]: 100%
Herbicidal rate (%) Echinochloa crus-galli [14]: 100%

COCC(C)n1oc(=O)c(Cc2ccccc2N(C(=O)Oc2ccccc2)S(=O)(=O)C(F)(F)F)c1C (stereo not shown) [Compound 1-765]
herbicidal effect (herbicidal rate), Amaranthus viridis [1]: 40%
herbicidal effect (herbicidal rate), Echinochloa crus-galli [2]: 90%
herbicidal effect (herbicidal rate), southern crabgrass [3]: 90%
herbicidal effect (herbicidal rate), Chenopodium album [4]: 40%
Herbicidal rate (%) Scirpus juncoides [5]: 90%
Herbicidal rate (%) Lindernia pyxidaria [6]: 90%
Herbicidal rate (%) Monochoria vaginalis [6]: 90%
Herbicidal rate (%) Echinochloa crus-galli [7]: 90%
herbicidal rate, Amaranthus viridis [8]: 90%
herbicidal rate, Echinochloa crus-galli [9]: 90%
herbicidal rate, southern crabgrass [10]: 90%
herbicidal rate, Chenopodium album [11]: 90%
Herbicidal rate (%) Scirpus juncoides [12]: 90%
Herbicidal rate (%) Lindernia pyxidaria [13]: 90%
Herbicidal rate (%) Monochoria vaginalis [13]: 90%
Herbicidal rate (%) Echinochloa crus-galli [14]: 90%

CCC(CC)n1oc(=O)c(Cc2ccccc2N(C(=O)CC(C)C)S(=O)(=O)C(F)(F)F)c1C [Compound 1-353]
herbicidal effect (herbicidal rate), Amaranthus viridis [1]: 40%
herbicidal effect (herbicidal rate), Echinochloa crus-galli [2]: 90%
herbicidal effect (herbicidal rate), southern crabgrass [3]: 90%
herbicidal effect (herbicidal rate), Chenopodium album [4]: 40%
Herbicidal rate (%) Scirpus juncoides [5]: 90%
Herbicidal rate (%) Lindernia pyxidaria [6]: 90%
Herbicidal rate (%) Monochoria vaginalis [6]: 90%
Herbicidal rate (%) Echinochloa crus-galli [7]: 90%
herbicidal rate, Amaranthus viridis [8]: 90%
herbicidal rate, Echinochloa crus-galli [9]: 90%
herbicidal rate, southern crabgrass [10]: 90%
herbicidal rate, Chenopodium album [11]: 90%
Herbicidal rate (%) Scirpus juncoides [12]: 90%
Herbicidal rate (%) Lindernia pyxidaria [13]: 90%
Herbicidal rate (%) Monochoria vaginalis [13]: 90%
Herbicidal rate (%) Echinochloa crus-galli [14]: 90%
